This note sets out measurements from patent publication US10112941B2, “Tricyclic compounds as anticancer agents” (BRISTOL-MYERS SQUIBB COMPANY, priority 2013, dated 2018).

The test concerns the target BRD4 (Homo sapiens, UniProt O60885). The test is described as follows: Time Resolved Fluorescence Resonance Energy Transfer (TR-FRET) binding assay, BRD4. The note with it: one of the FRET assays described; read-out: FRET BRD4 IC50. On the technique in general: TR-FRET usually uses a lanthanide donor and a delayed reading to cut background.
Turning to `Cc1noc(C)c1-c1cnc2c3ccc(S(C)(=O)=O)cc3n(C(c3ccccc3)C3CCC(F)(F)CC3)c2c1` (single isomer, unassigned) [Example 154, 4-{5-[(4,4-Difluorocyclohexyl)(phenyl)methyl]-7-methanesulfonyl-5H-pyrido[3,2-b]indol-3-yl}-3,5-dimethyl-1,2-oxazole], the half-maximal inhibitory concentration (IC50) was below 25 nM.
Regarding `Cc1noc(C)c1-c1cnc2c3ccc(S(C)(=O)=O)cc3n(C(c3ccccc3)C3CCC(F)(F)CC3)c2c1` (single isomer, unassigned) [Example 155, 4-{5-[(4,4-Difluorocyclohexyl)(phenyl)methyl]-7-methanesulfonyl-5H-pyrido[3,2-b]indol-3-yl}-3,5-dimethyl-1,2-oxazole], the IC50 was below 25 nM.
`Cc1nnn(C)c1-c1cnc2c3ccc(S(C)(=O)=O)cc3n(C(c3ccccc3)C3CCC(F)(F)CC3)c2c1` (single isomer, unassigned) [Example 156, 5-{5-[(4,4-Difluorocyclohexyl)(phenyl)methyl]-7-methanesulfonyl-5H-pyrido[3,2-b]indol-3-yl}-1,4-dimethyl-1H-1,2,3-triazole]: the IC50 is below 5 nM.
In the case of `Cc1nnn(C)c1-c1cnc2c3ccc(S(C)(=O)=O)cc3n(C(c3ccccc3)C3CCC(F)(F)CC3)c2c1` (single isomer, unassigned) [Example 157, 5-{5-[(4,4-Difluorocyclohexyl)(phenyl)methyl]-7-methanesulfonyl-5H-pyrido[3,2-b]indol-3-yl}-1,4-dimethyl-1H-1,2,3-triazole], the IC50 was below 5 nM.
Turning to `[2H]C([2H])([2H])c1nnn(C)c1-c1cnc2c3c(S(C)(=O)=O)cc(F)c(F)c3n(C(c3ccccc3)C3CCC(F)(F)CC3)c2c1` (single isomer, unassigned) [Example 164, 5-{5-[(4,4-Difluorocyclohexyl)(phenyl)methyl]-6,7-difluoro-9-methanesulfonyl-5H-pyrido[3,2-b]indol-3-yl}-4-(^2H3)methyl-1-methyl-1H-1,2,3-triazole], the half-inhibitory concentration (IC50) is below 5 nM.
As to `Cc1nnn(C)c1-c1cnc2c3ccc(C(C)(C)N)cc3n(C(c3ccccc3)C3CCOCC3)c2c1` (single isomer, unassigned) [Example 165, 2-[3-(Dimethyl-1H-1,2,3-triazol-5-yl)-5-[oxan-4-yl(phenyl)methyl]-5H-pyrido[3,2-b]indol-7-yl]propan-2-amine], the IC50 was below 5 nM.
Take `Cc1nnn(C)c1-c1cnc2c3ccc(C(C)(C)N)cc3n(C(c3ccccc3)C3CCOCC3)c2c1` (single isomer, unassigned) [Example 166, 2-[3-(Dimethyl-1H-1,2,3-triazol-5-yl)-5-[oxan-4-yl(phenyl)methyl]-5H-pyrido[3,2-b]indol-7-yl]propan-2-amine]: the 50% inhibitory concentration (IC50) is below 5 nM.
Consider `Cc1nnn(C)c1-c1cnc2c3ccc(C(C)(C)NC(=O)CN(C)C)cc3n(C(c3ccccc3)C3CCOCC3)c2c1` (single isomer, unassigned) [Example 167, N-{2-[3-(Dimethyl-1H-1,2,3-triazol-5-yl)-5-[oxan-4-yl(phenyl)methyl]-5H-pyrido[3,2-b]indol-7-yl]propan-2-yl}-2-(dimethylamino)acetamide], for which the IC50 was below 5 nM.
For the compound `Cc1nnn(C)c1-c1cnc2c3ccc(C(C)(C)NC(=O)CN(C)C)cc3n(C(c3ccccc3)C3CCOCC3)c2c1` (single isomer, unassigned) [Example 168, N-{2-[3-(Dimethyl-1H-1,2,3-triazol-5-yl)-5-[oxan-4-yl(phenyl)methyl]-5H-pyrido[3,2-b]indol-7-yl]propan-2-yl}-2-(dimethylamino)acetamide], the IC50 is below 5 nM.
As for `Cc1sc(=O)n(C)c1-c1cnc2c3ccc(C(C)(C)O)cc3n(C(c3ccccc3)C3CCOCC3)c2c1` (single isomer, unassigned) [Example 169, 4-[7-(2-Hydroxypropan-2-yl)-5-[oxan-4-yl(phenyl)methyl]-5H-pyrido[3,2-b]indol-3-yl]-3,5-dimethyl-2,3-dihydro-1,3-thiazol-2-one], the half-inhibitory concentration (IC50) was below 5 nM.
The same measure for `Cc1sc(=O)n(C)c1-c1cnc2c3ccc(C(C)(C)O)cc3n(C(c3ccccc3)C3CCOCC3)c2c1` (single isomer, unassigned) [Example 170, 4-[7-(2-Hydroxypropan-2-yl)-5-[oxan-4-yl(phenyl)methyl]-5H-pyrido[3,2-b]indol-3-yl]-3,5-dimethyl-2,3-dihydro-1,3-thiazol-2-one]: below 1500 nM.
The same measure for `[2H]C([2H])([2H])c1nnn(C)c1-c1cnc2c3c(F)cc(S(C)(=O)=O)cc3n(C(c3ccccc3)C3CCC(F)(F)CC3)c2c1` (single isomer, unassigned) [Example 199, 5-{5-[(4,4-Difluorocyclohexyl)(phenyl)methyl]-9-fluoro-7-methanesulfonyl-5H-pyrido[3,2-b]indol-3-yl}-4-(^2H3)methyl-1-methyl-1H-1,2,3-triazole]: below 5 nM; for `[2H]C([2H])([2H])c1nnn(C)c1-c1cnc2c3c(F)cc(S(C)(=O)=O)cc3n(C(c3ccccc3)C3CCC(F)(F)CC3)c2c1` (single isomer, unassigned) [Example 200, 5-{5-[(4,4-Difluorocyclohexyl)(phenyl)methyl]-9-fluoro-7-methanesulfonyl-5H-pyrido[3,2-b]indol-3-yl}-4-(^2H3)methyl-1-methyl-1H-1,2,3-triazole]: below 5 nM.
For the compound `Cc1nnn(C)c1-c1cnc2c3ccc(C(C)(C)O)cc3n(C(c3ccccc3)C3CCC(F)(F)CC3)c2c1` (single isomer, unassigned) [Example 205], the IC50 is below 5 nM.
Take `Cc1nnn(C)c1-c1cnc2c3ccc(C(C)(C)O)cc3n(C(c3ccccc3)C3CCC(F)(F)CC3)c2c1` (single isomer, unassigned) [Example 206]: the IC50 was below 5 nM.
With `[2H]C([2H])([2H])c1nnn(C)c1-c1cnc2c3c(OC)cc(S(C)(=O)=O)cc3n(C(c3ncccc3F)C3CCC(F)(F)CC3)c2c1` (single isomer, unassigned) [Example 213, 2-[(4,4-Difluorocyclohexyl)({7-methanesulfonyl-9-methoxy-3-[4-(^2H3)methyl-1-methyl-1H-1,2,3-triazol-5-yl]-5H-pyrido[3,2-b]indol-5-yl})methyl]-3-fluoropyridine], the IC50 was below 5 nM.
Consider `[2H]C([2H])([2H])c1nnn(C)c1-c1cnc2c3c(OC)cc(S(C)(=O)=O)cc3n(C(c3ncccc3F)C3CCC(F)(F)CC3)c2c1` (single isomer, unassigned) [Example 214, 2-[(4,4-Difluorocyclohexyl)({7-methanesulfonyl-9-methoxy-3-[4-(^2H3)methyl-1-methyl-1H-1,2,3-triazol-5-yl]-5H-pyrido[3,2-b]indol-5-yl})methyl]-3-fluoropyridine], for which the IC50 was below 5 nM.
In the case of `COc1ccc(C(C2CCOCC2)n2c3cc(C(C)(C)O)ccc3c3ncc(-c4c(C)nnn4C)cc32)cc1` (single isomer, unassigned) [Example 249, 2-[3-(Dimethyl-1H-1,2,3-triazol-5-yl)-5-[(4-methoxyphenyl)(oxan-4-yl)methyl]-5H-pyrido[3,2-b]indol-7-yl]propan-2-ol] it was below 5 nM.
`COc1ccc(C(C2CCOCC2)n2c3cc(C(C)(C)O)ccc3c3ncc(-c4c(C)nnn4C)cc32)cc1` (single isomer, unassigned) [Example 250, 2-[3-(Dimethyl-1H-1,2,3-triazol-5-yl)-5-[(4-methoxyphenyl)(oxan-4-yl)methyl]-5H-pyrido[3,2-b]indol-7-yl]propan-2-ol]: the IC50 is below 25 nM.
The same measure for `Cc1nnn(C)c1-c1cnc2c3ccc(C(C)(C)O)cc3n(C(c3ccc(F)cc3)C3CCC3)c2c1` (single isomer, unassigned) [Example 251, 2-{5-[Cyclobutyl(4-fluorophenyl)methyl]-3-(dimethyl-1H-1,2,3-triazol-5-yl)-5H-pyrido[3,2-b]indol-7-yl}propan-2-ol]: below 5 nM; for `Cc1nnn(C)c1-c1cnc2c3ccc(C(C)(C)O)cc3n(C(CCC(F)(F)F)c3ccccn3)c2c1` (single isomer, unassigned) [Example 253, 2-[3-(Dimethyl-1H-1,2,3-triazol-5-yl)-5-[4,4,4-trifluoro-1-(pyridin-2-yl)butyl]-5H-pyrido[3,2-b]indol-7-yl]propan-2-ol]: below 5 nM.
Regarding `Cc1nnn(C)c1-c1cnc2c3ccc(C(C)(C)O)cc3n(C(CCC(F)(F)F)c3ccccn3)c2c1` (single isomer, unassigned) [Example 254, 2-[3-(Dimethyl-1H-1,2,3-triazol-5-yl)-5-[4,4,4-trifluoro-1-(pyridin-2-yl)butyl]-5H-pyrido[3,2-b]indol-7-yl]propan-2-ol], the 50% inhibitory concentration (IC50) was below 5 nM.
As for `Cc1nnn(C)c1-c1cnc2c3c(S(C)(=O)=O)cccc3n(C(CCC(F)(F)F)c3ccccn3)c2c1` (single isomer, unassigned) [Example 258, 2-{1-[3-(Dimethyl-1H-1,2,3-triazol-5-yl)-9-methanesulfonyl-5H-pyrido[3,2-b]indol-5-yl]-4,4,4-trifluorobutyl}pyridine], the 50% inhibitory concentration (IC50) is below 5 nM.
As for `Cc1cc(C(C2CCOCC2)n2c3cc(C(C)(C)O)ccc3c3ncc(-c4c(C)nnn4C)cc32)no1` (single isomer, unassigned) [Example 286, 2-[3-(Dimethyl-1H-1,2,3-triazol-5-yl)-5-[(5-methyl-1,2-oxazol-3-yl)(oxan-4-yl)methyl]-5H-pyrido[3,2-b]indol-7-yl]propan-2-ol], the IC50 is below 5 nM.
The same measure for `Cc1cc(C(C2CCOCC2)n2c3cc(C(C)(C)O)ccc3c3ncc(-c4c(C)nnn4C)cc32)no1` (single isomer, unassigned) [Example 287, 2-[3-(Dimethyl-1H-1,2,3-triazol-5-yl)-5-[(5-methyl-1,2-oxazol-3-yl)(oxan-4-yl)methyl]-5H-pyrido[3,2-b]indol-7-yl]propan-2-ol]: below 25 nM; for `Cc1nnn(C)c1-c1cnc2c3ccc(C(C)(C)O)c(F)c3n(C(c3ccncc3F)C3CCOCC3)c2c1` (single isomer, unassigned) [Example 288]: below 5 nM.
In the case of `Cc1nnn(C)c1-c1cnc2c3ccc(C(C)(C)O)c(F)c3n(C(c3ccncc3F)C3CCOCC3)c2c1` (single isomer, unassigned) [Example 289] it was below 5 nM; in that of `Cc1cc(C(C2CCOCC2)n2c3cc(-c4c(C)nnn4C)cnc3c3ccc(C(C)(C)O)c(F)c32)no1` (single isomer, unassigned) [Example 290], below 5 nM.

By IC50 is commonly meant the point on the concentration scale where inhibition reaches its midpoint.
